Consider three molecules from patent US7776597B2, “Method of inducing embryonic stem cells into pancreatic cells” (Beijing Hua Yuan Bo Chuang Technology Limited, priority 2005, dated 2010).

Experiment [1] deals with ES-R1 cells. The experiment can be described thus: Cell cluster formation on coated dishes during three-step induction. Conditions: dish coating matrix, third step of induction. The format is cell-based, mice. How it is done:
(§1) Step 1, to induce embryonic body (EB) formation, ES cells were dissociated with trypsin and suspended into Petri dishes (Alpha medical instrument) with 10% FBS/DMEM without LIF. After 24 to 48 hours (See FIG. 1B), EBs were collected and re-plated into 10% FBS/DMEM without LIF in 1% Matrigel (BD Biosciences) coated dishes. Two hours later, EBs began to spread onto the dishes and were cultured in 10% FBS/DMEM with 100 ng/ml activin A (Sigma) for 24 hours. Then EBs were switched to 10% FBS/DMEM for 6-8 hours as an interval. After this interval, the differentiated EB cells were cultured in 10% FBS/DMEM with 10^−6 M RA (Sigma) for another 24 hours.
(§2) Step 3, to mature the insulin producing cells, the expanded cells in step 2 were switched to DMEM/F12 (Gibco-BRL) with N2 supplement (1:100, Gibco-BRL), B27 supplement (1:50 Gibco-BRL), 1 μg/ml Laminin (Sigma), 10 ng/ml bFGF (Sigma) and 10 mM nicotinamide (Sigma) and cultured for 3-5 days (Lumelsky N, Blondel O, Laeng P, et al. Differentiation of embryonic stem cells to insulin-secreting structures similar to pancreatic islets. Science 2001; 292:1389-1394.) The morphology of cells was observed under a Nikon phase-contrast microscope (TS-100).

The subject of experiment [2] is ES-R1 cells. The experiment can be described thus: RT-PCR analysis of marker gene expression in differentiated mouse ES cells. Format: cell-based, mice. The note with it: end of step 2. The method, then:
as §1, §2
Total RNA was extracted by Catrimox-14 kit (TaKaRa) from the cells in step 2 or step 3 which were induced by both with and without activin A and RA or with only one of them. […]

Regarding laminin, in the experiment with ES-R1 cells [1], the cell cluster formation entry is “no cell clusters formed”. On to `CC1=C(/C=C/C(C)=C/C=C/C(C)=C/C(=O)O)C(C)(C)CCC1` [RA, All-trans retinoic acid], for which, in the experiment with ES-R1 cells [2], the “marker genes expressed (RT-PCR)” value is listed as “express only hnf3β”.

B1: activin A: a member of TGF-β superfamily; disulfide-stabilized protein (protein, UniProt P08476 311-426, looked up)
Inhibin beta A chain: GLECDGKVNICCKKQFFVSFKDIGWNDWIIAPSGYHANYCEGECPSHIAGTSGSSLSFHSTVINHYRMRGHSPFANLKSCCVPTKLRPMSMLYYDDGQNIIKKDIQNMIVEECGCS
On to B1, for which, in the experiment on ES-R1 cells [2], the “marker genes expressed (RT-PCR)” value was “mainly express hnf3β and pdx-1”.
